The source of these data is ChEMBL document CHEMBL4396865, “Current advances of triazole alcohols derived from fluconazole: Design, in vitro and in silico studies” (2019).

Holding throughout (format): functional
Assay [1] concerns Candida albicans. Kind of assay: Antifungal activity against Candida albicans. The settings on record: Candida albicans.
Assay [2] has as its system Candida parapsilosis. As to the kind of experiment: Antifungal activity against Candida parapsilosis. The settings on record: Lodderomyces parapsilosis.
Assay [3] concerns Candida tropicalis. As to the kind of experiment: Antifungal activity against Candida tropicalis. Conditions: Candida tropicalis.
The subject of assay [4] is Kluyveromyces marxianus. Kind of assay: Antifungal activity against Candida kefyr. Conditions: Kluyveromyces marxianus.
Assay [5] relates to Cryptococcus neoformans. As to the kind of experiment: Antifungal activity against Cryptococcus neoformans. The settings on record: Cryptococcus neoformans.
Assay [6] deals with Trichophyton rubrum. Kind of assay: Antifungal activity against Trichophyton rubrum. The settings on record: Trichophyton rubrum.
In assay [7] the test system is Aspergillus fumigatus. Kind of assay: Antifungal activity against Aspergillus fumigatus. The settings on record: Aspergillus fumigatus.
Assay [8] deals with Candida albicans. Kind of assay: Antifungal activity against Candida albicans ATCC 76615 after 24 hrs by microbroth dilution method. Conditions: ATCC 76615, 24 h.
Assay [9] relates to Candida albicans. Kind of assay: Potency index, ratio of fluconazole MIC to test compound MIC for Candida albicans.
For assay [10], the system named is Candida albicans. As to the kind of experiment: Antifungal activity against fluconalzole-susceptible Candida albicans after 24 hrs.
Assay [11] concerns Candida parapsilosis. As to the kind of experiment: Antifungal activity against fluconalzole-susceptible Candida parapsilosis after 24 hrs. The settings on record: Lodderomyces parapsilosis.
For assay [12], the system named is Candida albicans. As to the kind of experiment: Antifungal activity against Candida albicans CA98001. The settings on record: Candida albicans, CA98001; read-out: MIC.
The subject of assay [13] is Candida albicans. Kind of assay: Antifungal activity against Candida albicans DSY735. The settings on record: Candida albicans, DSY735; read-out: MIC.
Assay [14] concerns Candida albicans. As to the kind of experiment: Antifungal activity against Candida albicans CAAL-74. Conditions: Candida albicans, CAAL-74; read-out: MIC.
Assay [15] relates to Pichia kudriavzevii. As to the kind of experiment: Antifungal activity against Candida krusei CK506. The settings on record: Pichia kudriavzevii, CK506; read-out: MIC.
In assay [16] the test system is Pichia kudriavzevii. As to the kind of experiment: Antifungal activity against Candida krusei CK8. Conditions: Pichia kudriavzevii, CK8; read-out: MIC.
For assay [17], the system named is Nakaseomyces glabratus. Kind of assay: Antifungal activity against Candida glabrata CG468. The settings on record: Nakaseomyces glabratus, CG468; read-out: MIC.
The subject of assay [18] is Candida parapsilosis. As to the kind of experiment: Antifungal activity against Candida parapsilosis CAPA1. The settings on record: Lodderomyces parapsilosis, CAPA1; read-out: MIC.
Assay [19] deals with Candida parapsilosis. As to the kind of experiment: Antifungal activity against Candida parapsilosis CAPA2. The settings on record: Lodderomyces parapsilosis, CAPA2; read-out: MIC.
In assay [20] the test system is Aspergillus fumigatus. As to the kind of experiment: Antifungal activity against Aspergillus fumigatus AF98003.
Assay [21] deals with Candida albicans. As to the kind of experiment: Antifungal activity against Candida albicans after 48 hrs by NCCLS protocol based method.
Assay [22] concerns Candida parapsilosis. As to the kind of experiment: Antifungal activity against Candida parapsilosis after 48 hrs by NCCLS protocol based method. Conditions: Lodderomyces parapsilosis.

≈ marks a conversion by molar mass, not a printed value.

`N#Cc1ccc(COC2CCN(CC(O)(Cn3cncn3)c3ccc(F)cc3F)CC2)cc1` (stereo unspecified): the MIC80 in assay [1] is 0.01 µM (≈ 0.00453 µg/mL); in assay [2], 0.01 to 2.33 µM (≈ 0.00453 to 1.06 µg/mL); in assay [3] it was 0.01 to 2.33 µM (≈ 0.00453 to 1.06 µg/mL); in [4], 0.01 to 2.33 µM (≈ 0.00453 to 1.06 µg/mL); in [5], 0.01 to 2.33 µM (≈ 0.00453 to 1.06 µg/mL); in assay [6] it was 0.03 to 0.15 µM (≈ 0.0136 to 0.068 µg/mL). In addition, the MIC80 lay within 0.55 to 2.33 µM (≈ 0.249 to 1.06 µg/mL) in [7] and 0.01 to 2.33 µM (≈ 0.00453 to 1.06 µg/mL) in [8]. For the same compound, the Ratio in assay [9] stood at 82.
As for `OC(Cn1cncn1)(Cn1cnc(SCc2ccc(Br)cc2)n1)c1ccc(F)cc1F` (stereo unspecified), the MIC in [10] and in assay [11] was 0.063 to 1 µg/mL (≈ 0.124 to 1.97 µM) throughout.
`OC(CN1CCC(OCc2ccccc2F)CC1)(Cn1cncn1)c1ccc(F)cc1F` (stereo unspecified): the MIC80 in [1], in [2], in assay [3], in [4], in assay [5] and in [6] was 0.01 to 0.56 µM (≈ 0.00446 to 0.25 µg/mL) throughout. The MIC80 in [7] and in assay [8] was 0.01 to 0.56 µM (≈ 0.00446 to 0.25 µg/mL) each time. Moreover, the Ratio in assay [9] is given as 82.
With `OC(Cn1cncn1)(Cn1cnc(SCc2ccccc2F)n1)c1ccc(F)cc1F` (stereo unspecified), the MIC in assay [10] and in assay [11] was 0.063 to 1 µg/mL (≈ 0.141 to 2.24 µM) each time.
As for `OC(CN1CCC(OCc2ccc(Cl)cc2Cl)CC1)(Cn1cncn1)c1ccc(F)cc1F` (stereo unspecified), the MIC80 in assay [1] was 0.01 µM (≈ 0.00497 µg/mL); in assay [2] it was 0.01 to 2.33 µM (≈ 0.00497 to 1.16 µg/mL); in assay [3], 0.01 to 2.33 µM (≈ 0.00497 to 1.16 µg/mL); in assay [4], 0.01 to 2.33 µM (≈ 0.00497 to 1.16 µg/mL); in assay [5], 0.01 to 2.33 µM (≈ 0.00497 to 1.16 µg/mL); in assay [6], 0.03 to 0.15 µM (≈ 0.0149 to 0.0746 µg/mL). Further, the MIC80 in assay [7] lay within 0.55 to 2.33 µM (≈ 0.274 to 1.16 µg/mL); in [8] it was 0.01 to 2.33 µM (≈ 0.00497 to 1.16 µg/mL). Also, the Ratio in assay [9] was 82.
For `OC(CN1CCC(OCc2ccccc2)CC1)(Cn1cncn1)c1ccc(F)cc1F` (stereo unspecified), the MIC80 in assay [1], in [2], in [3], in [4], in assay [5] and in assay [6] was 0.01 to 0.56 µM (≈ 0.00428 to 0.24 µg/mL) throughout. For the same compound, the MIC80 in assay [7] and in [8] was 0.01 to 0.56 µM (≈ 0.00428 to 0.24 µg/mL) throughout. The Ratio in assay [9] stood at 82.
`CN(Cc1ccc(S(=O)(=O)Nc2ccccc2)cc1)CC(O)(Cn1cncn1)c1ccc(F)cc1F` (stereo unspecified): the MIC in assay [12], in assay [13], in assay [14], in assay [15], in assay [16] and in assay [17] was 0.001 to 0.069 µg/mL (≈ 0.00195 to 0.134 µM) each time. The MIC was in the range of 0.001 to 0.069 µg/mL (≈ 0.00195 to 0.134 µM) in assay [18], 0.001 to 0.069 µg/mL (≈ 0.00195 to 0.134 µM) in assay [19] and 0.767 to 3.57 µg/mL (≈ 1.49 to 6.95 µM) in [20].
`OC(CN1CCC(OCc2cccc(Cl)c2)CC1)(Cn1cncn1)c1ccc(F)cc1F` (stereo unspecified): the MIC80 in assay [1] was 0.01 µM (≈ 0.00463 µg/mL); in assay [2] it was 0.01 to 2.33 µM (≈ 0.00463 to 1.08 µg/mL); in assay [3] it was 0.01 to 2.33 µM (≈ 0.00463 to 1.08 µg/mL); in [4], 0.01 to 2.33 µM (≈ 0.00463 to 1.08 µg/mL); in [5], 0.01 to 2.33 µM (≈ 0.00463 to 1.08 µg/mL); in assay [6], 0.03 to 0.15 µM (≈ 0.0139 to 0.0694 µg/mL). In addition, the MIC80 lay in the range of 0.55 to 2.33 µM (≈ 0.255 to 1.08 µg/mL) in assay [7] and 0.01 to 2.33 µM (≈ 0.00463 to 1.08 µg/mL) in assay [8]. In assay [9], the Ratio worked out at 82.
For the compound `CC(C)c1ccc(NS(=O)(=O)c2ccc(CN(C)CC(O)(Cn3cncn3)c3ccc(F)cc3F)cc2)cc1` (stereo unspecified), the MIC in assay [12], in [13], in [14], in [15], in [16] and in assay [17] was 0.001 to 0.069 µg/mL (≈ 0.0018 to 0.124 µM) each time. Also, the MIC in assay [18] lay within 0.001 to 0.069 µg/mL (≈ 0.0018 to 0.124 µM); in assay [19], 0.001 to 0.069 µg/mL (≈ 0.0018 to 0.124 µM); in assay [20], 0.767 to 3.57 µg/mL (≈ 1.38 to 6.42 µM).
For `CCCNS(=O)(=O)c1ccc(CN(C)CC(O)(Cn2cncn2)c2ccc(F)cc2F)cc1` (stereo unspecified), the MIC in assay [12], in assay [13], in assay [14], in assay [15], in assay [16] and in [17] was 0.001 to 0.069 µg/mL (≈ 0.00209 to 0.144 µM) each time. Moreover, the MIC in assay [18] lay in the range of 0.001 to 0.069 µg/mL (≈ 0.00209 to 0.144 µM); in assay [19] it was 0.001 to 0.069 µg/mL (≈ 0.00209 to 0.144 µM); in [20], 0.767 to 3.57 µg/mL (≈ 1.6 to 7.44 µM).
For `CC(C)NS(=O)(=O)c1ccc(CN(C)CC(O)(Cn2cncn2)c2ccc(F)cc2F)cc1` (stereo unspecified), the MIC in assay [12], in [13], in [14], in assay [15], in assay [16] and in assay [17] was 0.001 to 0.069 µg/mL (≈ 0.00209 to 0.144 µM) each time. For the same compound, the MIC in assay [18] lay within 0.001 to 0.069 µg/mL (≈ 0.00209 to 0.144 µM); in assay [19] it was 0.001 to 0.069 µg/mL (≈ 0.00209 to 0.144 µM); in assay [20], 0.767 to 3.57 µg/mL (≈ 1.6 to 7.44 µM).
As to `OC(CN1CCC(OCc2ccccc2Cl)CC1)(Cn1cncn1)c1ccc(F)cc1F` (stereo unspecified), the MIC80 is 0.01 µM (≈ 0.00463 µg/mL) in [1]; 0.01 to 2.33 µM (≈ 0.00463 to 1.08 µg/mL) in [2]; 0.01 to 2.33 µM (≈ 0.00463 to 1.08 µg/mL) in assay [3]; 0.01 to 2.33 µM (≈ 0.00463 to 1.08 µg/mL) in assay [4]; 0.01 to 2.33 µM (≈ 0.00463 to 1.08 µg/mL) in assay [5]; 0.03 to 0.15 µM (≈ 0.0139 to 0.0694 µg/mL) in [6]. The MIC80 in assay [7] is 0.55 to 2.33 µM (≈ 0.255 to 1.08 µg/mL); in [8] it was 0.01 to 2.33 µM (≈ 0.00463 to 1.08 µg/mL). Moreover, in assay [9], the Ratio was found to be 82.
For `C[C@H](CCCn1cc(CC(O)(Cn2cncn2)c2ccc(F)cc2F)nn1)[C@H]1CC[C@H]2[C@@H]3CC[C@@H]4C[C@H](O)CC[C@]4(C)[C@H]3C[C@H](O)[C@]12C` (stereo partly specified), the MIC in assay [21] and in assay [22] was 3.12 to 6.25 µg/mL (≈ 4.68 to 9.37 µM) throughout.
